From patent US9908912B2, “Triclosan derivatives and uses thereof” (priority 2012, dated 2018)
Converted amounts (≈) assume the structure as drawn.

Key:
Str. agalactiae = experiment: MIC in Nutrient Agar; format: cell-based, Streptococcus agalactiae; settings: Nutrient Agar containing 0.1 μg/ml of inducer; 37° C., 24 hours
Procedure: (§1) The triclosan-glycosides were added to Nutrient Agar (Oxoid CM0003; Thermofisher Scientific) and organisms were transferred onto the plates surface using a multi-point inoculation device (Oxoid Cathra, Thermofisher Scientific). The latter is essentially a metal plate containing a number of needles. Each needle tip (usually 36 per plate) dips into an organism suspension (in phosphate buffered saline; PBS) and the needles are then moved over the agar plate and lowered onto its surface. In this way the growth of colonies of up to 36 different organisms can be observed on one plate.
(§2) Nutrient Agar No. 2 was prepared according to the manufacturers instructions, autoclaved and cooled to 50° C. Test compounds were then added as filter sterilised solutions (50:50 deionised water:ethanol), to give final concentrations from 256 μg/ml to 0 μg/ml in doubling dilutions. […] The mixtures were swirled then four plates (25 ml molten agar) were poured for each concentration. Plates were dried in a laminar flow cabinet then inoculated with overnight cultures of organisms that had been decimally diluted twice in sterile saline solution (approximately 10^7 cfu/ml) using a multi-point inoculator. Plates were then incubated at 37° C. for 24 hours. MICs were determined as the concentration at which no growth was observed.

Kleb. aerogenes = experiment: MIC in Nutrient Agar; format: cell-based, Klebsiella aerogenes; settings: Nutrient Agar containing 0.1 μg/ml of inducer; 37° C., 24 hours
Procedure: as §1, §2

S. saprophyticus = experiment: MIC in Nutrient Agar; format: cell-based, Staphylococcus saprophyticus; settings: Nutrient Agar containing 0.1 μg/ml of inducer; 37° C., 24 hours
Procedure: as §1, §2

C. freundii = experiment: MIC in Nutrient Agar; format: cell-based, Citrobacter freundii; settings: Nutrient Agar containing 0.1 μg/ml of inducer; 37° C., 24 hours
Procedure: as §1, §2

S. haemolyticus = experiment: MIC in Nutrient Agar; format: cell-based, Staphylococcus haemolyticus; settings: Nutrient Agar containing 0.1 μg/ml of inducer; 37° C., 24 hours
Procedure: as §1, §2

Str. viridans = experiment: MIC in Nutrient Agar; format: cell-based, Streptococcus viridans; settings: Nutrient Agar containing 0.1 μg/ml of inducer; 37° C., 24 hours
Procedure: as §1, §2

Ent. cloacae ATCC 13047 = experiment: MIC in Nutrient Broth No. 2; format: cell-based, Enterobacter cloacae; settings: Nutrient Broth No. 2
Procedure: (§3) Bacteria species as indicated in Table 1 were incubated for approximately 24 hours at 37° C.
(§4) The tests were repeated with the addition of inducers. Methyl glycoside was the main inducer used, but other suitable inducers include isopropyl-β-D-thiogalactopyranoside, p-nitrophenyl-α-L-arabinopyranoside and p-nitrophenyl-β-D-xylopyranoside. Concentration of inducer in all cases was 100 μg/ml.

[1] = system: Serratia marcescens OCC 217; experiment: MIC in Nutrient Broth No. 2; format: cell-based; settings: Nutrient Broth No. 2
Procedure: as §3, §4

[2] = system: Citrobacter freundii OCC 851; experiment: MIC in Nutrient Broth No. 2; format: cell-based; settings: Nutrient Broth No. 2
Procedure: as §3, §4

[3] = system: Bacillus cereus ATCC 14579; experiment: MIC in Nutrient Broth No. 2; format: cell-based; settings: Nutrient Broth No. 2
Procedure: as §3, §4

[4] = system: Enterococcus faecalis ATCC 29212; experiment: MIC in Nutrient Broth No. 2; format: cell-based; settings: Nutrient Broth No. 2
Procedure: as §3, §4

Escherichia coli = experiment: MIC in Nutrient Broth No. 2; format: cell-based; settings: 8 strains, Nutrient Broth No. 2
Procedure: as §3, §4

[5] = system: Ps. Aeruginosa ATCC 27853; experiment: MIC in Nutrient Broth No. 2; format: cell-based; settings: Nutrient Broth No. 2
Procedure: as §3, §4

Hafnia alvei ATCC 13337 = experiment: MIC in Nutrient Broth No. 2; format: cell-based; settings: Nutrient Broth No. 2
Procedure: as §3, §4

[6] = system: Bacillus subtilis NCTC 10073; experiment: MIC in Nutrient Broth No. 2; format: cell-based; settings: Nutrient Broth No. 2
Procedure: as §3, §4

Salmonella [7] = experiment: MIC in Nutrient Broth No. 2; format: cell-based; settings: 11 strains, Nutrient Broth No. 2
Procedure: as §3, §4

[8] = system: Proteus mirabilis ATCC 12453; experiment: MIC in Nutrient Broth No. 2; format: cell-based; settings: Nutrient Broth No. 2
Procedure: as §3, §4

[9] = system: Enterobacter aerogenes ATCC 13048; experiment: MIC in Nutrient Broth No. 2; format: cell-based; settings: Nutrient Broth No. 2
Procedure: as §3, §4

[10] = system: Aeromonas hydrophila OCC 778; experiment: MIC in Nutrient Broth No. 2; format: cell-based; settings: Nutrient Broth No. 2
Procedure: as §3, §4

Proteus vulgaris OCC 195 = experiment: MIC in Nutrient Broth No. 2; format: cell-based; settings: Nutrient Broth No. 2
Procedure: as §3, §4

E. hermanii ATCC 33650 = experiment: MIC in Nutrient Broth No. 2; format: cell-based, Escherichia hermanii; settings: Nutrient Broth No. 2
Procedure: as §3, §4

[11] = system: Staph. haemolyticus OCC 2223; experiment: MIC in Nutrient Broth No. 2; format: cell-based, Staphylococcus haemolyticus; settings: Nutrient Broth No. 2
Procedure: as §3, §4

[12] = system: Kleb. aerogenes NCTC 88167; experiment: MIC in Nutrient Broth No. 2; format: cell-based, Klebsiella aerogenes; settings: Nutrient Broth No. 2
Procedure: as §3, §4

Staph. aureus = experiment: MIC in Nutrient Broth No. 2; format: cell-based, Staphylococcus aureus; settings: 8 strains, Nutrient Broth No. 2
Procedure: as §3, §4

[13] = system: Strep. agalactiae OCC 182; experiment: MIC in Nutrient Broth No. 2; format: cell-based, Streptococcus agalactiae; settings: Nutrient Broth No. 2
Procedure: as §3, §4

[14] = system: Strep. pyogenes ATCC 19615; experiment: MIC in Nutrient Broth No. 2; format: cell-based, Streptococcus pyogenes; settings: Nutrient Broth No. 2
Procedure: as §3, §4

Bacillus cereus = experiment: MIC in Nutrient Agar; format: cell-based; settings: Nutrient Agar containing 0.1 μg/ml of inducer; 37° C., 24 hours
Procedure: as §1, §2

Hafnia alvei = experiment: MIC in Nutrient Agar; format: cell-based; settings: Nutrient Agar containing 0.1 μg/ml of inducer; 37° C., 24 hours
Procedure: as §1, §2

Bacillus subtilis = experiment: MIC in Nutrient Agar; format: cell-based; settings: Nutrient Agar containing 0.1 μg/ml of inducer; 37° C., 24 hours
Procedure: as §1, §2

Salmonella [15] = experiment: MIC in Nutrient Agar; format: cell-based; settings: 11 strains; Nutrient Agar containing 0.1 μg/ml of inducer; 37° C., 24 hours
Procedure: as §1, §2

Ps. aeruginosa = experiment: MIC in Nutrient Agar; format: cell-based; settings: Nutrient Agar containing 0.1 μg/ml of inducer; 37° C., 24 hours
Procedure: as §1, §2

Ser. marcescens = experiment: MIC in Nutrient Agar; format: cell-based, Serratia marcescens; settings: Nutrient Agar containing 0.1 μg/ml of inducer; 37° C., 24 hours
Procedure: as §1, §2

Str. pyogenes = experiment: MIC in Nutrient Agar; format: cell-based, Streptococcus pyogenes; settings: Nutrient Agar containing 0.1 μg/ml of inducer; 37° C., 24 hours
Procedure: as §1, §2

OC[C@H]1O[C@H](Oc2cc(Cl)ccc2Oc2ccc(Cl)cc2Cl)[C@H](O)[C@@H](O)[C@@H]1O [α-D-Glucoside, triclosan-α-D-glucopyranoside]
MIC (Str. agalactiae): 128 µg/mL (≈ 283 µM) | MIC (Kleb. aerogenes): 2 µg/mL (≈ 4.43 µM) | MIC (S. saprophyticus): 4 µg/mL (≈ 8.86 µM) | MIC (C. freundii): 4 µg/mL (≈ 8.86 µM) | MIC (S. haemolyticus): 1 µg/mL (≈ 2.21 µM) | MIC (Str. viridans): 64 µg/mL (≈ 142 µM) | MIC (Ent. cloacae ATCC 13047; with inducer 100 μg/ml): 1 µg/mL (≈ 2.21 µM) | MIC (Ent. cloacae ATCC 13047; without inducer): 1 µg/mL (≈ 2.21 µM) | MIC ([1]; with inducer 100 μg/ml): >256 µg/mL | MIC ([1]; without inducer): >256 µg/mL | MIC ([2]; with inducer 100 μg/ml): 4 µg/mL (≈ 8.86 µM) | MIC ([2]; without inducer): 4 µg/mL (≈ 8.86 µM) | MIC ([3]; with inducer 100 μg/ml): 128 µg/mL (≈ 283 µM) | MIC ([3]; without inducer): 128 µg/mL (≈ 283 µM) | MIC ([4]; with inducer 100 μg/ml): 128 µg/mL (≈ 283 µM) | MIC ([4]; without inducer): 128 µg/mL (≈ 283 µM) | MIC (Escherichia coli; with inducer 100 μg/ml): 1 to 4 µg/mL | MIC (Escherichia coli; without inducer): 2 to 8 µg/mL | MIC ([5]; with inducer 100 μg/ml): >256 µg/mL | MIC ([5]; without inducer): >256 µg/mL | MIC (Hafnia alvei ATCC 13337; with inducer 100 μg/ml): 1 µg/mL (≈ 2.21 µM) | MIC (Hafnia alvei ATCC 13337; without inducer): 1 µg/mL (≈ 2.21 µM) | MIC ([6]; with inducer 100 μg/ml): 32 µg/mL (≈ 70.8 µM) | MIC ([6]; without inducer): 32 µg/mL (≈ 70.8 µM) | MIC (Salmonella [7]; with inducer 100 μg/ml): 1 to 4 µg/mL | MIC (Salmonella [7]; without inducer): 2 to 8 µg/mL | MIC ([8]; with inducer 100 μg/ml): 2 µg/mL (≈ 4.43 µM) | MIC ([8]; without inducer): 2 µg/mL (≈ 4.43 µM) | MIC ([9]; with inducer 100 μg/ml): 4 µg/mL (≈ 8.86 µM) | MIC ([9]; without inducer): 8 µg/mL (≈ 17.7 µM) | MIC ([10]; with inducer 100 μg/ml): 256 µg/mL (≈ 567 µM) | MIC ([10]; without inducer): 256 µg/mL (≈ 567 µM) | MIC (Proteus vulgaris OCC 195; with inducer 100 μg/ml): 4 µg/mL (≈ 8.86 µM) | MIC (Proteus vulgaris OCC 195; without inducer): 4 µg/mL (≈ 8.86 µM) | MIC (E. hermanii ATCC 33650; with inducer 100 μg/ml): 1 µg/mL (≈ 2.21 µM) | MIC (E. hermanii ATCC 33650; without inducer): 1 µg/mL (≈ 2.21 µM) | MIC ([11]; with inducer 100 μg/ml): 1 µg/mL (≈ 2.21 µM) | MIC ([11]; without inducer): 1 µg/mL (≈ 2.21 µM) | MIC ([12]; with inducer 100 μg/ml): 4 µg/mL (≈ 8.86 µM) | MIC ([12]; without inducer): 2 µg/mL (≈ 4.43 µM) | MIC (Staph. aureus; with inducer 100 μg/ml): 1 µg/mL (≈ 2.21 µM) | MIC (Staph. aureus; without inducer): 1 µg/mL (≈ 2.21 µM) | MIC ([13]; with inducer 100 μg/ml): 128 µg/mL (≈ 283 µM) | MIC ([13]; without inducer): 128 µg/mL (≈ 283 µM) | MIC ([14]; with inducer 100 μg/ml): 16 µg/mL (≈ 35.4 µM) | MIC ([14]; without inducer): 32 µg/mL (≈ 70.8 µM) | MIC (Bacillus cereus): 64 µg/mL (≈ 142 µM) | MIC (Hafnia alvei): 0.5 µg/mL (≈ 1.11 µM) | MIC (Bacillus subtilis): 16 µg/mL (≈ 35.4 µM) | MIC (Salmonella [15]): 1 to 4 µg/mL | MIC (Ps. aeruginosa): >256 µg/mL | MIC (Ser. marcescens): >256 µg/mL | MIC (Str. pyogenes): 64 µg/mL (≈ 142 µM)
